{
  "source": "patent US20240390465A1",
  "about": "“Endostatin Peptides for the Treatment of Tumors, Fibrosis and Acute Lung Injury” (MUSC Foundation for Research Development, priority 2021, published 2024)",
  "key": {"[1]": {"system": "fibroblasts from lungs of patients with systemic sclerosis (SSc)", "assay": "SMA and Collagen 1A2 RNA in SSc lung fibroblasts", "assay_type": "cell-based, human", "experimental": "Fibroblasts were treated with TGFbeta with or without peptide Bio96-17 for 48 hours. RNA was extracted and levels of alpha smooth muscle actin (SMA) measured by qRT-PCR.\nSSc fibroblasts were treated with 10 μg/ml BioE4-03 for 72 hours. RNA was extracted and used to measure SMA and Collagen 1A2."}, "[2]": {"system": "fibroblasts from lungs of patients with Idiopathic Pulmonary Fibrosis (IPF)", "assay": "SMA and Collagen 1A2 RNA in IPF lung fibroblasts", "assay_type": "cell-based, human", "settings": "IPF lung fibroblasts (FIG. 17)"}, "[3]": {"system": "TRAMP C-2 mouse prostate tumor cells", "assay": "Prostate tumor growth in mice, peptide by oral gavage", "assay_type": "in vivo", "settings": "C57BL6 mice, TRAMP C-2 tumors, 50 μg/dose oral gavage twice per week, vs water control", "experimental": "(§1) For each of the experiments, descriptive statistics (means and standard deviations) for tumor volumes were calculated over time for each experimental group (i.e. Experiment 1: Control vs. BioE4 (FIG. 1); Experiment 2: PBS, Bio96, and BioE4-03 (FIG. 5)). Since tumor growth tends to be curvilinear, general linear mixed models (GLMMs) were created to estimate treatment-specific growth curves over time and to make comparisons between the peptide treatments and control. Separate GLMMs were constructed for each experiment, and each GLMM included random effects for each mouse, to control for the fact that the repeated volume measurements within a given mouse were correlated with one another. Tumor volume served as the dependent variable in each model, while time (in days), time^2, treatment, treatment×time, and treatment×time^2 were included as independent variables. Using these models, the estimated mean tumor volumes at specific selected time points and the mean rate of change in the tumor volumes at specific selected time points were compared. If a mouse's tumor grew too large, it was sacrificed; however, all tumor volumes measured prior to sacrifice were included in the modeling process. […]\nTwo groups of wild type C57BL6 mice from Jax Labs were injected with TRAMP C-2 mouse prostate tumor cells in the right flank. […] Tumors were measured 3 times/week. […]"}, "[4]": {"system": "me-38 colon adenocarcinoma tumor cells", "assay": "Colon adenocarcinoma tumor growth in mice, peptide by oral gavage", "assay_type": "in vivo", "settings": "sMIC tolerant transgenic mice, 100 μg/mouse oral gavage twice/week", "experimental": "as §1, with “Tumor volume served as the dependent variable in each model, while time (in days), time^2, treatment, treatment×time, and treatment×time^2 were included as independent variables. Using these models, the estimated mean tumor volumes at specific selected time points and the mean rate of change in the tumor volumes at specific selected time points were compared.” left out\nsMIC tolerant transgenic (MB481 strain) mice (Liu et al, Perturbation of NK cell peripheral homeostasis accelerates prostate carcinoma metastasis. J. Clin. Invest. 123:4410, 2013) were injected with 1×10^5 me-38 colon adenocarcinoma tumor cells via subcutaneous injection When tumor size reached approximately 75 mm^3, treatment was started. start treatment at four group. […] Tumor volume was measured 3 times per week. […]"}, "[5]": {"system": "tumors", "assay": "Histologic analysis of tumors (H&E, Masson Trichrome)", "assay_type": "in vivo, mouse", "experimental": "Histological analysis of tumors treated with vehicle alone, or with BioE4-03 or Bio96 peptides was performed."}},
  "note": "Residues, ends and D or L forms follow the SMILES beside them. *: point of attachment. Biotin = O=C1N[C@H]2[C@H](CS[C@H]2CCCCC(=O)*)N1; Ahx = NCCCCCC(=O)O",
  "data": [
    {"compound": "CC(C)C[C@H](NC(=O)[C@H](CC(C)C)NC(=O)[C@H](CCCNC(=N)N)NC(=O)CNC(=O)CNC(=O)[C@H](CC(C)C)NC(=O)[C@H](CC(C)C)NC(=O)[C@H](CO)NC(=O)[C@H](CO)NC(=O)[C@H](C)NC(=O)[C@H](CCC(N)=O)NC(=O)CNC(=O)[C@@H](NC(=O)[C@H](C)NC(=O)CCCC[C@@H]1SC[C@@H]2NC(=O)N[C@@H]21)[C@@H](C)O)C(=O)NCC(=O)N[C@@H](CCC(N)=O)C(=O)N[C@@H](CO)C(=O)N[C@@H](C)C(=O)N[C@@H](C)C(=O)N[C@@H](CO)C(=O)N[C@@H](CS)C(=O)N[C@@H](Cc1c[nH]cn1)C(=O)N[C@@H](Cc1c[nH]cn1)C(=O)N[C@@H](C)C(N)=O", "note": "[Bio96-17] (Biotin-ATGQASSLLGGRLLGQSAASCHHA-NH2)", "values": [
      {"measurement": "Coll1A2 levels", "setting": "[1]; Bio96-17 treatment (FIG. 15)", "result": "significant reduction"},
      {"measurement": "SMA levels", "setting": "[1]; Bio96-17 treatment (FIG. 15)", "result": "significant reduction"}
    ]},
    {"compound": "CC(C)C[C@H](NC(=O)[C@H](CC(C)C)NC(=O)[C@H](CCCNC(=N)N)NC(=O)CNC(=O)CNC(=O)[C@H](CC(C)C)NC(=O)[C@H](CC(C)C)NC(=O)[C@H](CO)NC(=O)[C@H](CO)NC(=O)[C@H](C)NC(=O)[C@H](CCC(N)=O)NC(=O)CNC(=O)[C@@H](NC(=O)[C@H](C)NC(=O)[C@H](CO)NC(=O)[C@@H]1CCCN1C(=O)[C@H](C)NC(=O)[C@H](CCC(=O)O)NC(=O)[C@@H](NC(=O)[C@H](CCCNC(=N)N)NC(=O)[C@H](Cc1c[nH]c2ccccc12)NC(=O)[C@@H](NC(=O)[C@H](CCC(=O)O)NC(=O)[C@H](CS)NC(=O)[C@H](Cc1ccc(O)cc1)NC(=O)[C@H](CO)NC(=O)CCCCCNC(=O)CCCC[C@@H]1SC[C@@H]2NC(=O)N[C@@H]21)[C@@H](C)O)[C@@H](C)O)[C@@H](C)O)C(=O)NCC(=O)N[C@@H](CCC(N)=O)C(=O)N[C@@H](CO)C(=O)N[C@@H](C)C(=O)N[C@@H](C)C(=O)N[C@@H](CO)C(=O)N[C@@H](CS)C(=O)N[C@@H](Cc1c[nH]cn1)C(=O)N[C@@H](Cc1c[nH]cn1)C(=O)N[C@@H](C)C(N)=O", "note": "[BioE4-03] ({Biotin-Ahx}-SYCETWRTEAPSATGQASSLLGGRLLGQSAASCHHA-NH2)", "values": [
      {"measurement": "Coll1A2 levels", "setting": "[1]; 10 μg/ml, 72 hours (FIG. 16)", "result": "significant reduction"},
      {"measurement": "SMA levels", "setting": "[1]; 10 μg/ml, 72 hours (FIG. 16)", "result": "significant reduction"},
      {"measurement": "Coll1A2 levels", "setting": "[2]", "result": "trend towards decrease"},
      {"measurement": "SMA levels", "setting": "[2]", "result": "trend towards decrease"}
    ]},
    {"compound": "Biotin-SYCETWRTEAPSATGQASSLLGGRLLGQSAASCHHAYIVLCIENSFMT-NH2 (cysteines drawn unpaired) [BioE4]", "values": [
      {"measurement": "mean rate of increase in the tumor volume on day 15 (model-based estimate)", "setting": "[3]", "result": "significantly (p=0.02) greater in the Control group when compared to the BioE4 group"},
      {"measurement": "mean tumor volume at day 15 (model-based estimate)", "setting": "[3]", "result": "significantly (p=0.0001) greater in the Control group when compared to the BioE4 group"}
    ]},
    {"compound": "CC(C)C[C@H](NC(=O)[C@H](CC(C)C)NC(=O)[C@H](CO)NC(=O)[C@H](CO)NC(=O)[C@H](C)NC(=O)[C@H](CCC(N)=O)NC(=O)CNC(=O)[C@@H](NC(=O)[C@H](C)NC(=O)CCCC[C@@H]1SC[C@@H]2NC(=O)N[C@@H]21)[C@@H](C)O)C(N)=O", "note": "[Bio96, Biotin-NH2-ATGQASSLL-CONH2] (Biotin-ATGQASSLL-NH2)", "values": [
      {"measurement": "mean rate of increase in the tumor volume at day 21 (model-based estimate)", "setting": "[4]; PBS control 151.1 mm^3 per day", "result": 90.6, "unit": "mm^3 per day"},
      {"measurement": "mean tumor volume at day 21 (model-based estimate)", "setting": "[4]; PBS control 1492.1 mm^3", "result": 871.4, "unit": "mm^3"},
      {"measurement": "tumor cell arrangement", "setting": "[5]; H&E staining, tumors from treated mice", "result": "looser cell arrangement"},
      {"measurement": "collagen bundles in the tumors", "setting": "[5]; Masson Trichrome stain, compared to vehicle treated mice", "result": "thinner collagen bundles"}
    ]}
  ]
}
